Legend:
[1] = In vitro permeation studies (IVPT), Franz cells; assay type: in vitro ADME, human; details: formulated in the hydrogel, single application, up to 24 h, non-occlusive
Text: In an embodiment, the same vertical diffusional system of IVRT studies was used to evaluate the potential in vitro penetration of the active molecules. Human surgical skin pieces (person, type 3 skin, arm tissue) were surgically removed at Central Lisbon University Hospital Centre, after the approval of the Bioethics Committee, and processed as described in (Miranda et al., 2020). Written informed consent was obtained from the participant (Process number 447/2017). One day before the experiments, frozen epidermal specimens were left to thaw at room temperate. Afterwards, the skin sheets, with the stratum corneum side facing up, were gently placed on glass flasks filled with ultrapurified water and left to stabilize overnight, at 4° C. […] NAC and LYS were quantified by RP-HPLC, as described in the section above. […]
(§1) In an embodiment, NAC and LYS were quantified by reversed-phase high-pressure liquid chromatography (RP-HPLC), using a Shimadzu LC-2010HT chromatographic system, equipped with an LC-20AD quaternary pump, a SIL-20AHT autosampler, a CTO-10AS over and an SPD-M2OA photodiode array detector. […] Using an injection volume of 50 μL, NAC and LYS were determined at 200 and 215 nm and eluted at 5.4 and 2.2 min, respectively.

THP-1 cells = assay: Maturation of THP-1 cells assessed by up-regulation of co-stimulatory molecules CD86 and CD54
Procedure: In an embodiment, the THP-1 cell line has been used as a dendritic cell (DC) surrogate for skin sensitizers hazard, following the OECD guidelines. […] The THP-1 cells are stabilized overnight at a density of 5×10^5 cells/mL. On the day after, cells are seeded in 12-well plates at a density of 8×10^5 cells/well and incubated for 24 h with medium (control), Dimethyl sulfoxide (DMSO) (allergens solvent) or with 20 mM of each inhibitor of ACD (NAC), (LYS) or mixture (NAC+LYS). In addition, sensitization is induced with the strong skin allergen 1-fluoro-2,4-dinitrobenzene (DNFB) (8 μM) or Methylisothiazolinone (MI) (100 μM) for 24 h. At the end of the incubation period, cells are washed with ice-cold PBS supplemented with 1% (v/v) inactivated FBS, centrifuged at 300×g for 5 min at 4° C. and pellets are dissolved in ice-cold PBS supplemented with 1% (v/v) inactivated FBS. Then, 100 µL of the cell suspension are incubated with, or without, 3 μL of anti-human CD54 antibody (#353111, Biolegend, San Diego, CA, USA) or anti-human CD86 (#305414, Biolegend, San Diego, CA, USA) antibody for 30 min at 4° C. […] A total of 1×10^4 living cells are considered for analysis. The CD86 and CD54 levels are analyzed by flow cytometry with the acquisition channels FL1 and FL4. Based on the geometric mean fluorescence intensity (MFI), the relative fluorescence intensity (RFI) of CD86 and CD54 for positive control cells and chemical-treated cells is calculated according to the following equation: […]

[2] = tested on: NRF2 dependent genes in HaCaT; assay: Expression of NRF2 dependent genes in keratinocytes (real time PCR); assay type: cell-based, human; details: 6 h
Procedure: HaCaT is cultured with Dulbecco's Modified Eagle's Medium (DMEM) (Sigma-Aldrich, St. Louis, MO, USA), supplemented with 10% (v/v) heat-inactivated fetal bovine serum (FBS), 1% (v/v) antibiotic solution (100 U/mL penicillin, 100 μg/mL streptomycin) (Gibco, Carlsbad, CA, USA), 3.7 g/L sodium bicarbonate and 1 mM sodium pyruvate (Sigma-Aldrich, St. Louis, MO, USA).
In an embodiment, HaCaT cells are seeded in 6-well plates at a density of 6×10^5 cells/well and allowed to adhere for 24 h. After that, cells are incubated for 24 h with exposure medium (control) or treated with 10 mM of NAC, 10 mM of LYS, 8 μM of DNFB, 100 μM of MI, or 10 mM+DNFB, 10 mM LYS+DNFB and 10 mM+MI, 10 mM LYS+MI for 6 h or 24 h.
In an embodiment, total RNA (ribonucleic acid) is extracted from HaCaT treated cells, as previously described by our group [37], with NZYol reagent, according to the manufacturer's instructions and its concentration is determined by OD260 measurement using a NanoDrop spectrophotometer (Thermo Scientific, Wilmington, DE, USA). Samples are stored in RNA Storage Solution at −80° C. until use. Total RNA (1 g) is reverse-transcribed using the iScript Select cDNA Synthesis Kit, and real-time reverse transcriptase-polymerase chain reaction (RT-PCR) reactions are performed, in duplicate for each sample, on a Bio-Rad MyCycler iQ5 (Hercules, CA, USA), as previously described by our group [38].
In an embodiment, after amplification, a threshold is set for each gene and Ct values are calculated for all samples. Gene expression changes are analyzed using Bio-Rad CFX Maestro 1.1 system software (Hercules, CA, USA). The results are normalized using Hprt-1 as the reference gene. Primer sequences are designed using Beacon Designer software version 7.7 (Premier Biosoft International, Palo Alto, CA, USA) and thoroughly tested.

[3] = In vitro release testing (IVRT), Franz cells, cellulose membrane; assay type: in vitro ADME; details: n=6; for dose depletion: 6 h
Procedure: In an embodiment, release studies of the hydrogels were performed on static vertical Franz cells (PermeGear, Inc., USA), with a diffusion circular area of 0.636 cm^2 and a receptor compartment of 5 mL. For that, infinite dose conditions (1 g) of the formulations were applied in the upper compartment, separated from the receptor by a cellulose membrane (MWCO≈14 000 Da, flat width 33 mm, Sigma-Aldrich), previously hydrated in ultrapurified water for at least 30 min. Before the experiments, the system was equilibrated for a minimum of 30 min. The release medium was composed of phosphate buffer pH 5.5 (guaranteeing the maintenance of sink conditions) and continuously stirred at 600 rpm, at 37° C. A circulating water bath maintained the membrane surface temperature at 32° C. During the release studies, the donor compartment, as well as the receptor sampling arm, were carefully covered to avoid medium evaporation, as well as to conduct the experiments under occlusive conditions. At predetermined time points (0.25, 0.5, 0.75, 1, 2, 3, 4 and 6 h), 300 μl of the medium were withdrawn and immediately replenished with fresh medium. NAC and LYS were quantified by HPLC (High-performance liquid chromatography). Release studies were conducted considering n=6 samples.
In an embodiment, the cumulative amount of NAC and LYS released over time was calculated according to the equation:
[formula] • where Cn is the API (active pharmaceutical ingredient) concentration of the receptor medium at each sampling time, Ci is the API concentration of the ith sample, A the effective diffusion area (0.636 cm^2), and VO (5 mL) and Vi (300 μL) the volumes of the receptor compartment and the collected sample, respectively.
In an embodiment, the release rates were retrieved from the slope of the linear regression obtained by plotting the cumulative amount of API diffused per cm^2 as a function of the square root of time. Additionally, mass balance studies were performed to characterize the extent of dose depletion, according to the equation:
[formula] • where Qf reflects the average cumulative amount released at the end of the assay and Qi the initial amount of API placed on the membrane.
as §1

[4] = incubated before DNFB, vs DNFB alone
[5] = incubated before MI, vs MI alone

Compound | quantity of the active molecules in the receptor compartment (penetration of stratum corneum of human skin) [1] | levels of the co-stimulatory molecules CD54 and CD86 (RFI), incubated alone (THP-1 cells; THP-1, 24 h, 20 mM, no allergen) | HMOX1 expression [2, 4] | NQO1 expression [2, 4] | dose depletion [3] | Tlag (time-lagged values) [3] | CD54 and CD86 maturation levels, pre-incubation before allergen (THP-1 cells; pre-incubation (20 mM) before 24 h DNFB (8 μM) and MI (100 μM)) | HMOX1 expression [2, 5] | TRX1 expression [2, 5]
NCCCC[C@H](N)C(=O)O [LYS, lysine] | below the limit of quantification | do not significantly modify | significantly decrease | significantly decrease | roughly 17% | approximately 0 h | – | – | –
CC(=O)N[C@@H](CS)C(=O)O [NAC, n-acetyl cysteine] | below the limit of quantification | – | significantly decrease | – | roughly 17% | approximately 0 h | significantly decrease | significantly decrease | significantly decrease
